Patent US20110098177A1, “METHODS AND COMPOSITIONS OF PLANT MICRONUTRIENTS” (NOVUS INTERNATIONAL INC., priority 2006, published 2011)
Read-outs that look alike come from different tables or passages of the source. Marks after values point to notes of the source that are not given here.

What was measured:
Type in all cases: in vivo
Florida-47 tomato [1] = experiment: Marketable yield per plant, greenhouse Fall 2007, tomato; conditions: for Marketable yield per plant, Tomato: foliar application at 3 and 7 WAT, rates not separated; for Tomato yield compared with control (in words): foliar applications, P<0.05
Protocol: (§1) The following experiments were performed in a green house during the fall of 2007 at GCREC, Balm, University of Florida. Fifteen products, at 3 different application rates were examined. The plot size was 2-gallon pots. Crop set-up, procedures and variables were as follows.
(§2) Transplants of ‘Florida-47’ tomato and ‘Aristotle’ bell pepper plants in the 4-true leaf stage (about 6 inches tall) were planted in 2-gal pots on Aug. 27, 2007. Pots were filled with a commercially available planting medium. This medium was selected based on the mineral composition of the products to be applied without providing significant nutritional inputs to the crops. Irrigation was provided with drip lines delivering between 0.50 and 0.33 gal/day/pot for tomato and bell pepper, respectively, and the crops were irrigated three times per day. No foliar pesticides were necessary.
(§3) There were four control treatments corresponding to each target micronutrient in which non-Fe, non-Mn, non-Zn or non-Cu pots received all other essential nutrients under non-limiting conditions.
(§4) Treatments were applied at three rates (high, medium and low) obtained from the estimated concentration of Zn, Fe, Cu, and Mn foliarly-applied in tomato and bell pepper in field situations (Table 1). Products were weighed and dissolved in 200 ml of deionized water with a non-ionic surfactant and applied to the newly-matured open leaves of each crop at 3 and 7 weeks after transplant (WAT). Treated pots were isolated during application to avoid cross-contamination of other treatments.
(§5) Medium nutrient concentration was determined 1 week before treatment. The mineral composition of the medium was 26.8 ppm NH4—N, 49 ppm NO3—N, 15.8 ppm P, 91.2 ppm K, 82.3 ppm Ca, 58.2 ppm Mg, 23.9 ppm Na, 125.6 ppm S, 1.33 ppm Fe, 0.39 ppm Mn, 0.35 ppm Zn, 0.05 pp, Cu, 0.04 ppm B, 0 ppm Mo, 0.73 ppm Al, and 12.1 ppm Si. The pH of the medium was 5.36 and the electric conductivity was 1.38 mS/cm. The foliar tissue analysis was performed at 6 WAT and the concentration of N, P, K, Mg, Ca, S, B, Zn, Mn, Fe, and Cu was determined by a commercial laboratory. Plant toxicity was determined at 4 WAT by using a 0-10 visual scale, where 0=no visible damage and 10=total plant death. Marketable fruit weight was collected 2 times in bell pepper and 4 times in tomato following USDA standards.
(§6) Data were analyzed using a general linear model, and means were separated using orthogonal contrasts at the 5% significance level.

Aristotle bell pepper [2] = conditions: 1 week after treatment, scale 0 = no visible injury, 10 = plant death
How it was run: (§7)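 Florida-47 tomato and Aristotle bell pepper transplants in 2-gal pots with low-nutrient medium (pH 5.36), drip-irrigated; products at three rates in deionized water plus non-ionic surfactant sprayed on newly matured leaves at 3 and 7 WAT. Toxicity scored at 4 WAT (0=no damage, 10=death); foliar tissue analysed at 6 WAT; marketable fruit harvested 4 times (tomato).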

Florida-47 tomato [3] = conditions: for Tomato toxicity: 1 week after treatment, scale 0 = no visible injury, 10 = plant death
How it was run: as §7

Florida-47 tomato [4] = experiment: Foliar nutrient concentration at 6 WAT, greenhouse Fall 2007, tomato; conditions: Example 2; crop not specified (tomato / bell pepper)
Protocol: as §1
as §2, with “necessary. […]” for “necessary.”
Medium nutrient concentration was determined 1 week before treatment. […] The foliar tissue analysis was performed at 6 WAT and the concentration of N, P, K, Mg, Ca, S, B, Zn, Mn, Fe, and Cu was determined by a commercial laboratory. Plant toxicity was determined at 4 WAT by using a 0-10 visual scale, where 0=no visible damage and 10=total plant death. […]
as §6

Aristotle bell pepper [5] = experiment: Marketable yield per plant, greenhouse Fall 2007, bell pepper; conditions: for Marketable yield per plant, Pepper: foliar application at 3 and 7 WAT, rates not separated; for Bell pepper yield compared with control (in words): foliar applications, P<0.05
Protocol: as §1, §2, §3, §4, §5, §6

[6] = test system: soybean plants (Asgrow 1102); experiment: ICP-MS micronutrient content of soybean trifoliates (Examples 11-12); design: Micronutrient content from ICP-MS analysis: Mn: unit not given here; conditions: for Micronutrient content from ICP-MS analysis: Fe: in ppm (unit assumed)
Protocol: The following experiments were performed on soybean plants growing in open-field plots during the summer and fall of 2008 at two production fields in West Central Minnesota. […] Trial design was a randomized complete block with 4 replications. Each plot measured 10' by 30' and consisted of five 22'' rows. Although all five rows of each plot were treated, only the center three rows (25' in length) of each plot were machine harvested. The two fields selected for these studies had historical Iron Deficiency Chlorosis (IDC) issues. The two field sites were planted by farmers with elite Roundup Ready commodity type soybean varieties with IDC tolerance (Asgrow 1102, Monsanto Corp.). […] BIOX-M was applied at a rate of 1.12 kg Mn/ha. […] All V4 treatments were applied in 10 gallons per acre of water with a backpack sprayer with a hand boom designed to “band” apply product directly to the plant row. Three nozzles with ConeJet TXVS-2 tips were oriented on either side and over the top of each row. This maximized the applied product to the plant tissue itself and minimized application of product to the soil surface. […] The V6 treatments (where applicable) were applied in 20 gallons per acre of water to increase the suspension of the BIOX products. […] The harvested plants were dried, ground, and subjected to Inductively Coupled Plasma-Mass Spectrometry (ICP-MS) analysis to determine plant micronutrient content.

Tygress tomato plants = experiment: Yields of tomato fruits, greenhouse (Examples 4-6); conditions: for Marketable yield: tomato fruits
How it was run: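 Tygress tomato in 2-gallon pots of micronutrient-poor medium (negligible Fe, Zn, Mn, Cu) in greenhouse; foliar treatments at 5 WAT in 200 mL/plant water with non-ionic surfactant. Newest non-applied leaves analysed 2 weeks before and after treatment; marketable fruit harvested three times from 10 WAT, graded. RCBD, 6 replications, LSD 5%.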

| Molecule | Marketable yield per plant, Tomato (Florida-47 tomato [1]) | Tomato yield compared with control (in words) (Florida-47 tomato [1]) | Pepper toxicity (Aristotle bell pepper [2]; High rate) | Pepper toxicity (Aristotle bell pepper [2]; Low rate) | Pepper toxicity (Aristotle bell pepper [2]; Medium rate) | Tomato toxicity (Florida-47 tomato [3]; High rate) | Tomato toxicity (Florida-47 tomato [3]; Low rate) | Tomato toxicity (Florida-47 tomato [3]; Medium rate) | Marketable yield per plant, Pepper (Aristotle bell pepper [5]) | Bell pepper yield compared with control (in words) (Aristotle bell pepper [5]) | Marketable yield (Tygress tomato plants; Zn 0.4 lb/acre) [a lb/plant] | other results |
| --- | --- | --- | --- | --- | --- | --- | --- | --- | --- | --- | --- | --- |
| CSCCC(O)C(=O)[O-].CSCCC(O)C(=O)[O-].[Cu+2] (centres unmarked) [BIOX-Cu, Cu-HMTBA] | 5.5* lb/plant | significantly increased | 0 | 0 | 0 | 0 | 0 | 0 | 4.0* lb/plant | significantly increased | – | Foliar injury (in words) (Florida-47 tomato [3]; copper concentration of 0.004% to 0.061% by weight, tomato and bell pepper stated together): no foliar injury; Foliar Cu relative to the non-Cu control (Florida-47 tomato [4]): about 4 times |
| CSCCC(O)C(=O)[O-].CSCCC(O)C(=O)[O-].[Mn+2] (centres unmarked) [BIOX-M, Mn-HMTBA] | 5.8* lb/plant | significantly increased | 0 | 0 | 0 | 0 | 0 | 0 | 3.9* lb/plant | significantly increased | – | Micronutrient content from ICP-MS analysis: Mn ([6]; 7.0 kg/ha, V4, Foxhome): 78.31; Micronutrient content from ICP-MS analysis: Fe ([6]; 7.0 kg/ha, V4, Foxhome): 90.52; Micronutrient content from ICP-MS analysis: Mn ([6]; 7.0 kg/ha, V4, Renville): 88.64; Micronutrient content from ICP-MS analysis: Fe ([6]; 7.0 kg/ha, V4, Renville): 99.40; Toxic effect on the plant (in words) (Florida-47 tomato [3]; manganese concentration of 0.015% to 0.124% by weight, both crops): no toxic effect; Marketable tomato yield compared with non-treated control (in words) (Tygress tomato plants; BIOX-M at 1.23 lb/acre or more, BIOX-EDM at 2.0 lb/acre, Mn-sulfate at 1.0 lb/acre): significantly higher than the non-treated control; Marketable yield (Tygress tomato plants; Mn 0.31 lb/acre): 2.2 b lb/plant; Marketable yield (Tygress tomato plants; Mn 0.62 lb/acre): 2.1 b lb/plant; Marketable yield (Tygress tomato plants; Mn 1.23 lb/acre): 4.2 a lb/plant; Marketable yield (Tygress tomato plants; Mn 2.46 lb/acre): 4.3 a lb/plant |
| CSCCC(O)C(=O)[O-].CSCCC(O)C(=O)[O-].[Zn+2] (centres unmarked) [BIOX-Z, Zn-HMTBA] | 2.9* lb/plant | significantly increased | 0 | 0 | 0 | 0 | 0 | 0 | 2.9* lb/plant | significantly increased | 3.9 | Foliar Zn concentration relative to the non-Zn control (Florida-47 tomato [4]): approximately 3 times; Marketable yields compared with the other Zn formulations (in words) (Tygress tomato plants; BIOX-Z at a concentration higher than 0.1 lb/acre): statistically similar to the other Zn supplementation treatment formulations; Marketable yield (Tygress tomato plants; Zn 0.1 lb/acre): 2.3 b lb/plant; Marketable yield (Tygress tomato plants; Zn 0.2 lb/acre): 3.7 a lb/plant; Marketable yield (Tygress tomato plants; Zn 0.8 lb/acre): 3.8 a lb/plant |
| EDTA chelated zinc [BIOX-EDZ] | – | – | 0 | 0 | 0 | 0 | 0 | 0 | – | – | 3.5 | – |
| Fe-HMTBA [BIOX-Fe] | – | – | – | – | – | – | – | – | – | – | – | Micronutrient content from ICP-MS analysis: Mn ([6]; 0.558 kg/ha, V4, V6, Foxhome): 76.21; Micronutrient content from ICP-MS analysis: Fe ([6]; 0.558 kg/ha, V4, V6, Foxhome): 88.30; Micronutrient content from ICP-MS analysis: Mn ([6]; 0.558 kg/ha, V4, V6, Renville): 96.44; Micronutrient content from ICP-MS analysis: Fe ([6]; 0.558 kg/ha, V4, V6, Renville): 96.26; Micronutrient content from ICP-MS analysis: Mn ([6]; 0.558 kg/ha, V4, Foxhome): 81.82; Micronutrient content from ICP-MS analysis: Fe ([6]; 0.558 kg/ha, V4, Foxhome): 83.38; Micronutrient content from ICP-MS analysis: Mn ([6]; 0.558 kg/ha, V4, Renville): 88.29; Micronutrient content from ICP-MS analysis: Fe ([6]; 0.558 kg/ha, V4, Renville): 98.39; Micronutrient content from ICP-MS analysis: Mn ([6]; 1.12 kg/ha, V4, V6, Foxhome): 87.67; Micronutrient content from ICP-MS analysis: Fe ([6]; 1.12 kg/ha, V4, V6, Foxhome): 83.35; Micronutrient content from ICP-MS analysis: Mn ([6]; 1.12 kg/ha, V4, V6, Renville): 89.00; Micronutrient content from ICP-MS analysis: Fe ([6]; 1.12 kg/ha, V4, V6, Renville): 98.74; Micronutrient content from ICP-MS analysis: Mn ([6]; 1.12 kg/ha, V4, Foxhome): 72.70; Micronutrient content from ICP-MS analysis: Fe ([6]; 1.12 kg/ha, V4, Foxhome): 84.93; Micronutrient content from ICP-MS analysis: Mn ([6]; 1.12 kg/ha, V4, Renville): 76.15; Micronutrient content from ICP-MS analysis: Fe ([6]; 1.12 kg/ha, V4, Renville): 97.42 |
